For 99 compounds, cytotoxicity results are on record in ChEMBL document CHEMBL3507680, “University of Dundee, Gates Library screen for HepG2 cell viability”.

The data set is described as follows: Human HepG2 cell viability assay in 384 well format. Set-up: dose 125 nL, time 70.5 hour; concentration not given beside the values. The class given is toxicity, cell-based. To be noted: HepG2 cells, read-out: Inhibition.

With `COc1cccc(CNc2ccc(F)c(Cl)c2)c1O`, the cytotoxicity at 70.5 h was -4.8%.

Turning to `Cc1nc(N2CCCC2)nc2c1CCN(C(=O)C1CCCCC1)CC2`, the cytotoxicity at 70.5 h is -0.729%.

For `COc1ncccc1C(=O)N1CC[C@H]2C[C@H](c3ccncn3)O[C@@H]2C1`, the cytotoxicity at 70.5 h is -14.1%. As to `O=C(c1ccccc1)N1CC[C@H]2C[C@H](c3nccs3)O[C@@H]2C1`, the cytotoxicity at 70.5 h is -11.2%. For `CCN1C[C@H]2CCN(C(=O)NC)CC[C@H]2S1(=O)=O` the value was 49%; for `COc1ncccc1C(=O)N1CC[C@H]2C[C@H](c3noc(C)n3)O[C@@H]2C1`, 51.3%; for `Cn1cc(CN2CC[C@H]3OCC[C@@H](C(=O)Nc4cnccn4)[C@@H]3C2)cn1`, 50.6%. For `O=C1CC[C@H]2[C@H](CCN2C(=O)N2CCCC2)N1Cc1ccncc1` the value was 50.7%; for `CNC(=O)c1cc2c(nc1NCC1CC1)CCN(c1ncccn1)CC2`, -20.8%. For `CC(C)NC(=O)N1CCN(C(=O)NC(C)C)CC2(CNC(=O)C2)C1` the value was 2.71%; for `CCNc1ncc2c(n1)CN(c1cccc(OC)c1)C2=O`, -7.43%. Turning to `Cc1nn(C)c2cnn(Cc3ccc(C(=O)N4CCCCC4)o3)c12`, the cytotoxicity at 70.5 h was -5.62%.

Turning to `Cc1nn(C)c2cnn(Cc3ccc(C(=O)NCC4CCCO4)o3)c12` (centres undefined), the cytotoxicity at 70.5 h was -5.42%. For `Cc1nn(C)c2cnn(Cc3ccc(C(=O)NC4CC4)o3)c12`, the cytotoxicity at 70.5 h was -1.57%. With `CCn1nc(C)c2c1cnn2CCNS(=O)(=O)Cc1ccccc1`, the cytotoxicity at 70.5 h was 11.3%. Then `O=C(CCn1ncc2c(Cl)cccc21)NCC1CC1`, with -5.33%.

Turning to `O=C(CCn1ncc2c(Cl)cccc21)NCCCO`, the cytotoxicity at 70.5 h is -5.48%. Then `CCn1nc(C)c2ncnc(N(C)C)c21`, with -3.05%. For `CCN(CC)c1ncnc2c(C)nn(CC)c12` the value was -0.883%; for `Cc1ccc(NC(=O)CN2CCOCC2)c(F)c1`, 21.2%; for `CCn1nc(C)c2nc(C)nc(NCCc3ccc(C)cc3)c21`, 34.1%. For `CCc1nc(Nc2ccc(C(=O)NC)cc2)c2c(n1)c(C)nn2CC` the value was -16.9%. `CCCc1nc(N(C)Cc2ccco2)c2c(n1)c(C)nn2CC`: the cytotoxicity at 70.5 h is -3.19%. For `CCCc1nc(NCCc2ccccc2)c2c(n1)c(C)nn2CC` the value was -16.2%; for `Cc1nn(C)c2c(N3CCC(C)CC3)nc(C3CC3)nc12`, -11.4%.

Take `Cc1nn(C)c2c(N3CCCC3)nc(C3CC3)nc12`: the cytotoxicity at 70.5 h was -11.4%. For `Cc1nn(C)c2c(NCc3ccc(F)cc3)nc(C3CC3)nc12` the value was -5.76%; for `Cc1nn(C)c(C)c1CN(C)c1nc(C2CC2)nc2c(C)nn(C)c12`, 29.7%. Then `CCn1nc(C)c2nc(C(C)C)nc(N(C)Cc3ccco3)c21`, with -17%.

Consider `CCn1nc(C)c2nc(C(C)C)nc(NCc3ccccn3)c21`, for which the cytotoxicity at 70.5 h is 0.25%. `CCN(CC)CCNc1nc(C(C)C)nc2c(C)nn(CC)c12`: the cytotoxicity at 70.5 h is -2.61%. In the case of `CC(C)n1cc(S(=O)(=O)N2CCSCC2)cn1`, the cytotoxicity at 70.5 h was -4.27%. Then `CSc1ncnc(NCc2ccccc2F)c1C#N`, with 23.1%; and `COCCCNC(=O)c1nnsc1-c1ccccc1`, with -14.7%; and `COCCNC(=O)c1cc(OC)c2ccoc2c1`, with -1.33%.

As for `COCCCNC(=O)c1cc(OC)c2ccoc2c1`, the cytotoxicity at 70.5 h is 22.5%. Then `CCN(CC)CCNC(=O)c1cc(OC)c2ccoc2c1`, with -5.95%; and `CSCc1cccc(S(=O)(=O)Nc2cc(C)on2)c1`, with 3.33%; and `CCN(CC)c1nc(C)cc(C(=O)Nc2ccc(Br)cc2)n1`, with 3.54%.

Regarding `Cc1nc2[nH]cnc(NCCN3CCCC3)c-2n1`, the cytotoxicity at 70.5 h was -9.67%.

Take `CCn1nccc1CNc1[nH]cnc2nc(C)nc1-2`: the cytotoxicity at 70.5 h came to 27.9%. For the compound `Cc1nc2c(N3CCN(Cc4ccccc4)CC3)nc(N)nc2n1C`, the cytotoxicity at 70.5 h was determined as 0.226%.

Regarding `CCn1ccc(NC(=O)C2CCC(=O)N2Cc2ccc(C)o2)n1` (centres undefined), the cytotoxicity at 70.5 h was -4.94%. Then `Cc1cc(C(=O)NCc2c(C)nn(C)c2C)nc(N2CCCC2)n1`, with -3.65%; and `Cc1cc(C(=O)NCc2cccs2)nc(N2CCCC2)n1`, with -6.4%; and `CCOCc1cccc(S(=O)(=O)Nc2ncc(C)s2)c1`, with 3.25%. In the case of `Cc1nc(N2CCOCC2)ncc1-c1cc(O)nc(N2CCCCC2)n1`, the cytotoxicity at 70.5 h is 14.1%. For `Cc1cc(C)n(C(=O)c2cn(C)nc2S(=O)(=O)N2CCSCC2)n1` the value was -7.57%; for `CCn1cc(C(=O)n2nc(C)cc2C)c(S(=O)(=O)N2CCCCC2)n1`, -3.56%. Take `CSc1ccc(-c2noc(CN(Cc3ccccc3)C(C)C)n2)cc1`: the cytotoxicity at 70.5 h was -6.81%. Turning to `CCCN(CCC)C(=O)Cn1c(SC)nc2ccsc2c1=O`, the cytotoxicity at 70.5 h was -0.333%.

Take `CSc1nc2ccsc2c(=O)n1CC(=O)N(C)C1CCCCC1`: the cytotoxicity at 70.5 h was -5.09%.

On to `Cc1ccn(-c2ccnc(N3CCC(N4CCCCC4)CC3)n2)n1`, for which the cytotoxicity at 70.5 h is -13.2%. For `Cc1ccn(-c2ccnc(N3CCSCC3)n2)n1` the value was -0.283%. With `CCOC(=O)C1CCCN(c2nccc(-n3nc(C)cc3C)n2)C1` (centres undefined), the cytotoxicity at 70.5 h is -9.69%. Then `Cc1ccn(-c2ccnc(N3CCN(c4ncccn4)CC3)n2)n1`, with -9.69%; and `CCc1cc(=O)n(CC(=O)N2CCCC2)c(-c2ccc(F)cc2)n1`, with -5.4%; and `Cc1cc2nc(SCC(=O)NC(C)C)n(Cc3ccco3)c(O)c-2n1`, with -14.4%. For `CN1CCN(C(=O)c2[nH]nnc2Nc2ccccc2F)CC1` the value was -14.3%; for `CC(C)CN1CCN(C(=O)c2[nH]nnc2Nc2ccccc2F)CC1`, 8.05%. For `CCc1cc(=O)n(CC(=O)N2CCC(C)CC2)c(-c2ccccc2)n1` the value was -10.3%; for `Cc1nc(-c2cccc(Cl)c2)n(CC(=O)NCC2CCCO2)c(=O)c1C` (centres undefined), 3.53%; for `CCn1cc(NC(=O)c2cc(C)nc(N3CCOCC3)n2)cn1`, -10.6%. Turning to `CC(=O)NCCCn1ncc2c(C)cccc21`, the cytotoxicity at 70.5 h is -10.8%. Then `CCS(=O)(=O)NCCCn1ncc2c(C)cccc21`, with -1.77%; and `c1cc(-c2nn3c(CN4CCOCC4)nnc3s2)ccn1`, with -8.04%; and `COc1ccc(C)cc1S(=O)(=O)NCCC(O)c1ccccc1` (centres undefined), with -10.5%. For `Cc1cc2n(n1)[C@@H](C(F)(F)F)C[C@@H](C1CCN(C(=O)C3CC3)CC1)N2` the value was -2.95%. Consider `CCc1cc(C(=O)N2CCC(c3cc4ncccc4cn3)CC2)no1`, for which the cytotoxicity at 70.5 h was 18.3%. `CCCN1C[C@H](NC(=O)c2cccs2)[C@@H](c2ccc(OC)cc2)C1`: the cytotoxicity at 70.5 h worked out at 0.254%. As to `Cc1cc(C)n(CCCC(=O)N2CCc3ncc(Cl)cc3C2)n1`, the cytotoxicity at 70.5 h was 30.1%. For `Cc1nc(C)n(CC(=O)N2CCc3ncc(Cl)cc3C2)n1` the value was 7.22%. For `Cc1cnc(-c2nc(C3CCN(C(=O)Cc4ccsc4)CC3)no2)cn1` the value was 2.59%; for `CN1CCN(C(=O)CCn2c(C(F)(F)F)cc3cccnc32)CC1`, 34.4%. Then `Cn1nccc1C(=O)N1Cc2ccccc2OC2(CCOCC2)C1`, with 1.33%; and `Cc1ccc(C(=O)N2Cc3ccccc3OC3(CCOCC3)C2)cn1`, with 30.6%; and `COc1ccc(-c2cc3nc([C@H](C)NC(=O)C4CC4)nn3cn2)cc1`, with -0.493%.

In the case of `C[C@H](NC(=O)C1CCCC1)c1nc2cc(-c3ccc(F)cc3)ncn2n1`, the cytotoxicity at 70.5 h was 4.97%. In the case of `COc1ccccc1C1=NOC(CC2(C(=O)NCCO)CCOCC2)C1` (centres undefined), the cytotoxicity at 70.5 h amounted to 0.737%. Take `c1ccc(-c2cc(CNCCN3CCOCC3)c3nnnn3c2)cc1`: the cytotoxicity at 70.5 h is -0.928%. For `COCCOCC(=O)N1C[C@@H]2CC[C@H](Oc3ccccc3Cl)[C@@H]2C1` the value was 0.895%. `O=C(O)c1ccccc1CN1CCOC(CCc2ccncn2)C1` (centres undefined): the cytotoxicity at 70.5 h is -4.46%.

Turning to `CS(=O)(=O)NC[C@]1(O)CCN(C(=O)Cc2cccs2)C[C@H]1O`, the cytotoxicity at 70.5 h was 12.2%. For `COCCCNC(=O)c1ccccc1-n1cc(CN(C)C)cn1`, the cytotoxicity at 70.5 h was -7.43%. Then `CC(C)OCCCN(Cc1ccncc1)Cc1cccc(F)c1F`, with 22.3%; and `CC(C)OCCCN(Cc1ccncc1)Cc1cccc(F)c1`, with 1.37%.

Take `Cn1cc(N2CC3(CCN(CC4CCC4)CC3)OCC2=O)cn1`: the cytotoxicity at 70.5 h is -7.64%.

As to `Cn1cc(N2CC3(CCN(Cc4nccs4)CC3)OCC2=O)cn1`, the cytotoxicity at 70.5 h is 39.5%.

`CCS(=O)(=O)N1CCOCC2(CCN(c3ccccn3)C2)C1` (centres undefined): the cytotoxicity at 70.5 h is -11.4%. For the compound `CS(=O)(=O)N1CCOCC2(CCN(c3ccccn3)C2)C1` (centres undefined), the cytotoxicity at 70.5 h is -10.4%. For `CC(=O)CN1CC2(CCNCC2)COc2ccccc2S1(=O)=O` the value was -12.2%. `CNC(=O)CN1CCOCC2(C1)CN(C(=O)CC(C)C)CCO2` (centres undefined): the cytotoxicity at 70.5 h is -4.88%. On to `COC(=O)CN1CC2(CCNCC2)COc2ccccc2S1(=O)=O`, for which the cytotoxicity at 70.5 h amounted to 6.67%.

On to `CO[C@@H]1CCN(Cc2ccoc2)[C@@H]2CN(Cc3ccco3)C[C@@H]21`, for which the cytotoxicity at 70.5 h was -5.98%. `c1cncc(OCc2noc3c2CN(Cc2ccco2)CC3)c1`: the cytotoxicity at 70.5 h is -17.4%. Then `N#Cc1cccc(CN2CCn3cc(Cn4cccn4)nc3C2)c1`, with -16%. Then `CCN(CC)c1ncnc2c1CCN(C(=O)Cc1ccccn1)CC2`, with -1.31%. For `COc1cc(CN2CCn3c(CO)nnc3C2)ccc1OC(C)C` the value was 34.7%. For the compound `Cc1ccc(CN(CCCn2ccnc2)Cc2cccs2)s1`, the cytotoxicity at 70.5 h is 18.6%.
